# Data from PubChem BioAssay AID1996.
# Conditions: buffer; pH 7.4; 200.0 µM
row,SMILES,solubility kinetic
1,O=C(O)c1cccc(NC(=O)c2ccccc2NC(=O)c2cccc([N+](=O)[O-])c2)c1,48.3 µg/mL
2,CC1(C)CC2(CCO1)OC(=O)CC2C(=O)Nc1ccc(Cl)cc1[N+](=O)[O-] (centres undefined),> 57.4 µg/mL
3,O=S(=O)(c1cccs1)N1CCC(CO)(Cc2cccc(F)c2)CC1,53.8 µg/mL
4,CCN(CC)S(=O)(=O)c1ccc(/C=C/C(=O)OCC(=O)NC(=O)C2COc3ccccc3O2)cc1 (centres undefined),21 µg/mL
5,CC1CCN(C(=O)CNC(=O)c2cccc(OC(F)F)c2)CC1,> 49 µg/mL
6,Cn1ccnc1C(=O)c1ccccc1Cl,> 33.1 µg/mL
7,Cc1cc(C)c(C(=O)COC(=O)CN2C(=O)NC3(CCCC3)C2=O)cc1C,> 55.9 µg/mL
8,CC1CCCCC1NC(=O)CSc1nc2ccccc2[nH]1 (centres undefined),37.5 µg/mL
9,N#Cc1cccnc1N1CCN(C(=O)c2ccccc2)CC1,43.4 µg/mL
10,COc1ccccc1Oc1coc2cc(OCC(N)=O)ccc2c1=O,47.8 µg/mL
11,c1ccc(CSc2cc3ccccc3[nH]2)cc1,2.8 µg/mL
12,S=C(NC1CCCCC1)N1CCn2cccc2C1c1cccnc1 (centres undefined),> 51.1 µg/mL
13,Cc1cccc(NC(=O)CCc2ccccc2)c1C,11.8 µg/mL
14,O=C(OCC(=O)N1CCc2ccccc2C1)c1ccc(O)cc1,4.5 µg/mL
15,CC1Cc2ccccc2N1CC(=O)NC(=O)NC(C)(C)C (centres undefined),30.7 µg/mL
16,Cc1c(C(=O)Oc2ccc(Cl)cc2)n(C)oc1=O,37 µg/mL
17,O=C(OCC(=O)N1CCC(Cc2ccccc2)CC1)c1cncc(Br)c1,9.9 µg/mL
18,COc1ccc(OC)c(S(=O)(=O)NCC(=O)O)c1,34.1 µg/mL
19,O=C(COc1ccccc1Cl)NCCCNC(=O)c1ccco1,> 50.5 µg/mL
20,CCOC(=O)c1cc(C)n(-c2ccc(Cl)cc2)c1C,1.2 µg/mL
21,CCOC(=O)c1c(CC(C)C)csc1/N=C/C1=C(O)CCCC1=O,2.3 µg/mL
22,CC(=O)N1CCC2(CC1)NC(=O)N(c1ccccc1)N2,> 41.1 µg/mL
23,c1cnc2c(c1)ccc1cccnc12,> 27 µg/mL
24,Cc1ccc2c(Cl)cc(Cl)c(OCC(=O)O)c2n1,> 42.9 µg/mL

row,SMILES,solubility kinetic
1,O=S(=O)(Nc1ccon1)c1ccc(F)c(F)c1,25.9 µg/mL
2,CN(CC(=O)NC(=O)Nc1ccccc1F)Cc1ccccc1F,2.7 µg/mL
3,CCOc1ccccc1NC(=S)NC1CC2CCC1C2 (centres undefined),5 µg/mL
4,COc1ccccc1CNC(=O)C(NC(=O)c1ccccc1)C(C)C (centres undefined),9.9 µg/mL
5,Cc1ccc(/C=C2\SC(N3CCCCC3)=NC2=O)cc1,5.7 µg/mL
6,CSc1ncccc1C(=O)OCC(=O)NCc1cccs1,35.8 µg/mL
7,CN(CC(=O)NCC1CCCCC1)S(=O)(=O)c1ccc(F)cc1,16.2 µg/mL
8,CCn1cc(C(C)NC(=O)Nc2ccc3c(c2)OCO3)c(C)n1 (centres undefined),> 47.5 µg/mL
9,O=C(Nc1ccccc1)NN(C(=O)CCl)c1ccccc1,> 45.6 µg/mL
10,Cc1cccn2c(=O)c(/C=N/O)c(NCc3ccccc3)nc12,< 0.2 µg/mL
11,C=CCOC(=O)C1=C(C)NC(=O)NC1c1ccc(OCC)cc1 (centres undefined),7.4 µg/mL
12,CC1CN(C(=O)c2cccs2)CC(C)O1 (centres undefined),32.4 µg/mL
13,N#C/C(C(N)=O)=C1/SC=C(c2ccccc2)N1c1ccccc1,0.4 µg/mL
14,NC(=O)C1CCN(C(=O)c2cc3c(s2)CCCC3)CC1,43.7 µg/mL
15,CN1CCN(c2ncnc3scc(-c4ccccc4Cl)c23)CC1,> 51.7 µg/mL
16,CCOC(=O)c1cccc(NC(=O)c2ccc3c(c2)OCO3)c1,2.7 µg/mL
17,O=C(CCCn1c(=O)[nH]c2ccccc2c1=O)Nc1ccc(F)cc1,7.7 µg/mL
18,NC(=O)CN1CCCC1c1ccc2c(c1)OCCO2 (centres undefined),> 39.3 µg/mL
19,Cc1ccc(SCC(=O)Nc2ccc3c(c2)C(=O)N(C)C3=O)cc1,3.2 µg/mL
20,CC1CCCN(C(=O)COc2ccc(Nc3ccccc3)cc2)C1 (centres undefined),6.2 µg/mL
21,CCC(C)c1ccc(NC(=S)NC(C)C2CCCO2)cc1 (centres undefined),31.2 µg/mL
22,Cn1c(Cc2ccccc2)nnc1SCC(=O)NCCc1ccccc1,> 55 µg/mL
23,CC(Oc1ccccc1)C(=O)OCC(=O)Nc1ccc2c(c1)OCO2 (centres undefined),> 51.5 µg/mL
24,COc1ccc(C2C(C(=O)O)c3ccccc3C(=O)N2Cc2ccco2)cc1 (centres undefined),> 56.6 µg/mL

row,SMILES,solubility kinetic
1,O=C(NCC(c1ccco1)N1CCOCC1)C1CCCCC1 (centres undefined),> 46 µg/mL
2,Oc1ccccc1C=NCCCCCCN=Cc1ccccc1O,47.4 µg/mL
3,COc1ccccc1OCC(=O)O/N=C(\N)c1ccccn1,> 45.2 µg/mL
4,COC(CNc1ncnc2c1cnn2C)OC,> 35.6 µg/mL
5,CCc1cn([C@H]2C[C@H](O)[C@@H](CO)O2)c(=O)[nH]c1=O,> 38.4 µg/mL
6,COCCNC(=O)C(=O)Nc1cc2c3c(c1)CCC(=O)N3CCC2,46.4 µg/mL
7,COc1ccc(NCC(O)Cn2c(C)c(C)c3ccccc32)cc1 (centres undefined),10.2 µg/mL
8,CN(CC(=O)Nc1ccc(Cl)cc1)C(=O)CCC1CCCC1,0.4 µg/mL
9,O=c1[nH]c(=S)n(-c2ccccc2)c(O)c1C=NCc1ccccn1,> 50.8 µg/mL
10,NC1=NC(=O)/C(=C/c2ccccc2OCC(=O)Nc2ccc(F)cc2)S1,3.8 µg/mL
11,CC(=O)Nc1ccc(S(=O)(=O)Nc2ccc(N3CCCCC3)cc2)cc1,51.9 µg/mL
12,CCc1ccccc1N1CC(C(=O)Nc2cc(C)on2)CC1=O (centres undefined),> 47 µg/mL
13,COc1ccc(S(=O)(=O)Oc2cc(C(=S)N3CCOCC3)ccc2OC)cc1,25.4 µg/mL
14,CCCCC(=O)N/C(N)=N/c1nc2ccccc2o1,0.7 µg/mL
15,COc1ccc(N2C(=O)CC(C)(C)CC2=O)cc1OC,> 41.6 µg/mL
16,O=C(CSc1cccc[n+]1[O-])NCC1CCCCC1,> 42.1 µg/mL
17,Cc1ccc2nc(-c3ccc4c(c3)NC(=O)CO4)cn2c1,3.2 µg/mL
18,Cc1cccnc1Nc1nc(-c2ccc(F)cc2)cs1,0.3 µg/mL
19,O=Cc1cn(Cc2c(F)cccc2Cl)c2ccccc12,5.6 µg/mL
20,Cc1cc2sc(NC(=O)c3ccco3)nc2cc1Cl,0.6 µg/mL
21,N/C(=N\OC(=O)c1cccc(F)c1)c1cccc([N+](=O)[O-])c1,1.3 µg/mL
22,O=C(NCC(=O)N1CCN(S(=O)(=O)c2ccc3c(c2)OCCO3)CC1)c1ccccc1F,10.2 µg/mL
23,O=C(COc1ccc(Br)cc1)NC1CC1,> 40.5 µg/mL
24,O=C(Nc1ccc(Cl)c([N+](=O)[O-])c1)c1ccc2c(c1)OCCO2,< 0.4 µg/mL

row,SMILES,solubility kinetic
1,Cc1cc(NS(=O)(=O)c2ccc(NC(=O)Cc3ccc([N+](=O)[O-])cc3)cc2)nc(C)n1,> 66.2 µg/mL
2,S=C(NC1CCCCC1)N1CCOCC1,33.8 µg/mL
3,CC1(CCCN2C(=O)c3ccccc3C2=O)OCCO1,> 41.3 µg/mL
4,Cc1cc(Cl)nc(SCC(=O)c2ccccc2)n1,29.3 µg/mL
5,CCN(C(=O)c1ccc2c(c1)OCO2)C12CC3CC(CC(C3)C1)C2,4 µg/mL
6,Cc1ccc(/C=C/C(=O)NCCc2cccc(Cl)c2)o1,5.1 µg/mL
7,Cc1ccc2c(c1)C(=O)OC1(O)C3C4C=CC(C4)C3C(=O)N21 (centres undefined),> 44.6 µg/mL
8,Nc1cc(=O)[nH]c(SCC(=O)Nc2cccc(Cl)c2Cl)n1,8.4 µg/mL
9,O=S(=O)(CCSc1ccc(C(F)(F)F)cn1)c1ccc(Cl)cc1,< 0.8 µg/mL
10,Cc1ccc(-c2nc(N)s[n+]2-c2ccccc2)cc1.[Br-],21 µg/mL
11,CS(=O)(=O)c1cccc(S(=O)(=O)N2CCCCCC2)c1,> 47.6 µg/mL
12,O=C(Cn1c(=S)[nH]c2ccccc2c1=O)NCCc1ccccc1,0.9 µg/mL
13,CCOC(=O)/C(C#N)=C/c1c(Oc2cccc(C)c2)nc2ccccn2c1=O,0.7 µg/mL
14,CCc1ccccc1NC(=O)NCc1cccnc1,> 38.3 µg/mL
15,O=C(COC(=O)COc1ccccc1[N+](=O)[O-])Nc1ccc2c(c1)OCO2,51.5 µg/mL
16,COc1cccc(OCCn2cc(C=O)c3ccccc32)c1,12.2 µg/mL
17,COc1ccc(CN(C)C(=O)Cc2c[nH]c3ccccc23)cc1,30.4 µg/mL
18,CCc1ccc(OCC(=O)Nc2ccncc2)c(Br)c1,15.5 µg/mL
19,O=C(c1ccc(Br)cc1)C12CN3CN(CN(C3)C1)C2,> 48.3 µg/mL
20,O=C(Nc1cc(Cl)ccc1N1CCOCC1)c1ccco1,3.5 µg/mL
21,COC(=O)CN1C(=O)c2cccc3cccc1c23,> 36.2 µg/mL
22,O=C(CNC(=O)C1CC1)Nc1ccc(F)c(F)c1F,> 40.8 µg/mL
23,O=C(COc1ccccc1)NCC(=O)N1CCCCCC1,> 43.6 µg/mL
24,CCCCc1nc2sc3c(c2c(=O)[nH]1)CC(C)(C)OC3,2.3 µg/mL

row,SMILES,solubility kinetic
1,CC(C)c1nc(SCC(=O)NC2CCCC2)c2ccccc2n1,6.1 µg/mL
2,COC(=O)c1ccc(NC(=O)C[n+]2ccccc2C)cc1.[Cl-],> 48.1 µg/mL
3,O=C(Nc1cccnc1)c1ccc([N+](=O)[O-])o1,> 35 µg/mL
4,O=C(NCCc1ccc(Cl)cc1)C1CCCN1C(=O)Nc1ccccc1 (centres undefined),54.7 µg/mL
5,CSc1ccc(CNC(=O)c2c(C)noc2C)s1,39.8 µg/mL
6,C#CC(C)(C)NC(=S)NC1CC2C=CC1C2 (centres undefined),28 µg/mL
7,CCN(CC)c1ccc(NC(=O)CN(C)Cc2cccs2)cc1,39.1 µg/mL
8,CC(OC(=O)c1cc2ccccc2[nH]1)C(=O)N(C)c1ccccc1 (centres undefined),3.8 µg/mL
9,CC1CCC(C(C)C)C(OCC(O)CN2CCCC(C)C2)C1.Cl (centres undefined),> 52.2 µg/mL
10,O=C(CSc1nc2ccccc2c(=O)n1CCCO)NC1CC1,> 50 µg/mL
11,CCOc1ccc(-n2c(C)c(C(=O)O)c3cc(OC)ccc32)cc1,6.3 µg/mL
12,Cc1ccc(-c2c[n+](Cc3ccc(Cl)cc3)c3n2CCC3)cc1.[Cl-],> 53.9 µg/mL
13,Cc1ccc2nsnc2c1NC(=O)c1ccc([N+](=O)[O-])o1,> 45.6 µg/mL
14,COC(=O)CCC(=O)Nc1cc(Cl)cc(Cl)c1,32.3 µg/mL
15,NC(=S)NC1CCS(=O)(=O)C1 (centres undefined),> 29.1 µg/mL
16,S=C(NCCC1=CCCCC1)NCc1ccco1,38.8 µg/mL
17,O=C1C2CCCN2C(c2ccco2)N1c1ccc(F)cc1 (centres undefined),> 42.9 µg/mL
18,CC1(C)Cc2nc3sc4c(SCC(=O)O)ncnc4c3cc2CO1,53.2 µg/mL
19,CCOC(=O)N1CCN(C(=S)NC(=O)/C=C/c2ccc(C)cc2)CC1,18.1 µg/mL
20,COc1ccc2[nH]c3c(=O)n(CCCN4CCOCC4)cnc3c2c1,> 51.4 µg/mL
21,O=C(NCc1cccs1)c1cccn2c(=O)c3sccc3nc12,0.6 µg/mL
22,O=C(COC(=O)c1ccc(OC(F)(F)F)cc1)Nc1ncccn1,10.1 µg/mL
23,Cc1ccc(CC(C(=O)O)C(C)C(=O)Nc2ccc(F)cc2)cc1 (centres undefined),> 49.4 µg/mL
